# Reference: ChEMBL document CHEMBL1255531, “Utilization of a nitrogen-sulfur nonbonding interaction in the design of new 2-aminothiazol-5-yl-pyrimidines as p38α MAP kinase inhibitors” (Bioorg Med Chem Lett, 2010)
# Calls of active or inactive are those of the source. The rule behind the calls is not given here.
# Legend:
# [1] = target: Epidermal growth factor receptor (Homo sapiens) (UniProt P00533); experiment: Inhibition of EGFR at 10 uM relative to control
# [2] = target: Ephrin type-A receptor 2 (Homo sapiens) (UniProt P29317); experiment: Inhibition of EPHA2 at 10 uM relative to control
# [3] = target: Serine/threonine-protein kinase Nek2 (Homo sapiens) (UniProt P51955); experiment: Inhibition of NEK2 at 10 uM relative to control
# [4] = target: Mitogen-activated protein kinase 10 (Homo sapiens) (UniProt P53779); experiment: Inhibition of JNK3 at 10 uM relative to control
# [5] = target: 5'-AMP-activated protein kinase catalytic subunit alpha-1 (Homo sapiens) (UniProt Q13131); experiment: Inhibition of AMPKA1 at 10 uM relative to control
# [6] = target: Platelet-derived growth factor receptor beta (Homo sapiens) (UniProt P09619); experiment: Inhibition of PDGRB at 10 uM relative to control
# [7] = Selectivity ratio of IC50 for p38alpha to IC50 for LIMK2
# [8] = target: Mitogen-activated protein kinase 8 (Homo sapiens) (UniProt P45983); experiment: Inhibition of JNK1 at 10 uM relative to control
# [9] = target: MAP kinase-interacting serine/threonine-protein kinase 2 (Homo sapiens) (UniProt Q9HBH9); experiment: Inhibition of MNK2 at 10 uM relative to control
# [10] = Aqueous solubility of the compound at pH 6.5; format: physicochemical; details: buffer
# [11] = target: Mast/stem cell growth factor receptor Kit (Homo sapiens) (UniProt P10721); experiment: Inhibition of KIT at 10 uM relative to control
# [12] = target: Serine/threonine-protein kinase 16 (Homo sapiens) (UniProt O75716); experiment: Inhibition of STK16 at 10 uM relative to control
# [13] = target: Serine/threonine-protein kinase PAK 5 (Homo sapiens) (UniProt Q9P286); experiment: Inhibition of PAK5 at 10 uM relative to control
# [14] = target: Calcium/calmodulin-dependent protein kinase type 1D (Homo sapiens) (UniProt Q8IU85); experiment: Inhibition of CAMK1D at 10 uM relative to control
# [15] = target: Fibroblast growth factor receptor 1 (Homo sapiens) (UniProt P11362); experiment: Inhibition of FGF1R at 10 uM relative to control
# [16] = target: Insulin receptor (Homo sapiens) (UniProt P06213); experiment: Inhibition of INSR at 10 uM relative to control
# [17] = target: Phosphorylase b kinase gamma catalytic chain, skeletal muscle/heart isoform (Homo sapiens) (UniProt Q16816); experiment: Inhibition of PHKG1 at 10 uM relative to control
# [18] = target: Cyclin-G-associated kinase (Homo sapiens) (UniProt O14976); experiment: Inhibition of GAK at 10 uM relative to control
# [19] = target: Vascular endothelial growth factor receptor 2 (Homo sapiens) (UniProt P35968); experiment: Inhibition of KDR at 10 uM relative to control
# [20] = target: Aurora kinase A (Homo sapiens) (UniProt O14965); experiment: Inhibition of aurora A at 10 uM relative to control
# [21] = target: Mitogen-activated protein kinase kinase kinase 4 (Homo sapiens) (UniProt Q9Y6R4); experiment: Inhibition of MAP3K4 at 10 uM relative to control
# [22] = target: Calcium/calmodulin-dependent protein kinase type 1 (Homo sapiens) (UniProt Q14012); experiment: Inhibition of CAMK1A at 10 uM relative to control
# [23] = target: Myosin light chain kinase 2, skeletal/cardiac muscle (Homo sapiens) (UniProt Q9H1R3); experiment: Inhibition of skeletal muscle MLCK at 10 uM relative to control; details: Muscle tissue
# [24] = target: Serine/threonine-protein kinase PAK 4 (Homo sapiens) (UniProt O96013); experiment: Inhibition of PAK4 at 10 uM relative to control
# [25] = target: Ephrin type-B receptor 4 (Homo sapiens) (UniProt P54760); experiment: Inhibition of EPHB4 at 10 uM relative to control
# [26] = target: Dual specificity protein kinase CLK1 (Homo sapiens) (UniProt P49759); experiment: Inhibition of CLK1 at 10 uM relative to control
# PBMC = experiment: Antiinflammatory activity in human PBMC assessed as inhibition of LPS-induced TNFalpha production after 6 hrs by ELISA; format: functional, cell-based
# [27] = target: High affinity nerve growth factor receptor (Homo sapiens) (UniProt P04629); experiment: Inhibition of TRKA at 10 uM relative to control
# [28] = target: Tyrosine-protein kinase SYK (Homo sapiens) (UniProt P43405); experiment: Inhibition of SYK at 10 uM relative to control
# [29] = target: Death-associated protein kinase 2 (Homo sapiens) (UniProt Q9UIK4); experiment: Inhibition of DAPK2 at 10 uM relative to control
# [30] = target: Serine/threonine-protein kinase pim-1 (Homo sapiens) (UniProt P11309); experiment: Inhibition of PIM1 at 10 uM relative to control
# [31] = target: Tyrosine-protein kinase ABL1 (Homo sapiens) (UniProt P00519); experiment: Inhibition of ABL1 at 10 uM relative to control
# [32] = target: Angiopoietin-1 receptor (Homo sapiens) (UniProt Q02763); experiment: Inhibition of TIE2 at 10 uM relative to control
# [33] = target: Proto-oncogene tyrosine-protein kinase Src (Homo sapiens) (UniProt P12931); experiment: Inhibition of SRC at 10 uM relative to control
# [34] = target: Aurora kinase C (Homo sapiens) (UniProt Q9UQB9); experiment: Inhibition of aurora C at 10 uM relative to control
# [35] = Selectivity ratio of IC50 for p38alpha to IC50 for LIMK1
# [36] = target: Casein kinase I isoform epsilon (Homo sapiens) (UniProt P49674); experiment: Inhibition of CK1E at 10 uM relative to control
# [37] = target: Insulin-like growth factor 1 receptor (Homo sapiens) (UniProt P08069); experiment: Inhibition of IGF1R at 10 uM relative to control
# [38] = target: Serine/threonine-protein kinase MARK2 (Homo sapiens) (UniProt Q7KZI7); experiment: Inhibition of MARK2 at 10 uM relative to control
# [39] = target: Tyrosine-protein kinase CSK (Homo sapiens) (UniProt P41240); experiment: Inhibition of CSK at 10 uM relative to control
# [40] = target: Cyclin-dependent kinase 2 (Homo sapiens) (UniProt P24941); experiment: Inhibition of CDK2 at 10 uM relative to control
# [41] = target: Receptor-type tyrosine-protein kinase FLT3 (Homo sapiens) (UniProt P36888); experiment: Inhibition of FLT3 at 10 uM relative to control
# [42] = target: Serine/threonine-protein kinase PAK 1 (Homo sapiens) (UniProt Q13153); experiment: Inhibition of PAK1 at 10 uM relative to control
# [43] = target: Mitogen-activated protein kinase 14 (Homo sapiens, UniProt Q16539); experiment: Inhibition of bacterially expressed activated p38alpha pre-incubated 10 mins measured after 45 mins by scintillation counting
# LIM domain kinase 2 = LIM domain kinase 2 (Homo sapiens, UniProt P53671); experiment: Inhibition of LIMK2
# LIM domain kinase 1 = LIM domain kinase 1 (Homo sapiens, UniProt P53667); experiment: Inhibition of LIMK1
# Sequence of LIM domain kinase 1 (P53667 whole entry, the tested form may be a part): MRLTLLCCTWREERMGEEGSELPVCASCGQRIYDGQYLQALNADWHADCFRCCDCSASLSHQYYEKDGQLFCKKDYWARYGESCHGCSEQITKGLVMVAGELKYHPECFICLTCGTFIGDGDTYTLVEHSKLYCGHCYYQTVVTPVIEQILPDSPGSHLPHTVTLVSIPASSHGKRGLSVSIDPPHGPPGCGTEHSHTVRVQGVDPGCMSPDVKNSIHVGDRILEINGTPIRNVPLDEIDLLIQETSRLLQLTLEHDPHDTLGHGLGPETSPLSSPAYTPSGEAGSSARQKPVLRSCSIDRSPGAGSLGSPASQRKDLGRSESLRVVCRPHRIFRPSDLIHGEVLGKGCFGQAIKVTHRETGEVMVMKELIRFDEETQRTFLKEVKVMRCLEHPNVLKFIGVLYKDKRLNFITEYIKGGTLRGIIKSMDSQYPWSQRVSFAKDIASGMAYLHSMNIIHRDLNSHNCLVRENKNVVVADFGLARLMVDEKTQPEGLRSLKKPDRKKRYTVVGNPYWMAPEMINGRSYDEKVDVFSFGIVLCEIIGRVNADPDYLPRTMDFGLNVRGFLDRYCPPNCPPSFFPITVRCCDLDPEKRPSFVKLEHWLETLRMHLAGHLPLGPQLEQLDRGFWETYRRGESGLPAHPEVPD
# Sequence of Mitogen-activated protein kinase 14 (Q16539 whole entry, the tested form may be a part): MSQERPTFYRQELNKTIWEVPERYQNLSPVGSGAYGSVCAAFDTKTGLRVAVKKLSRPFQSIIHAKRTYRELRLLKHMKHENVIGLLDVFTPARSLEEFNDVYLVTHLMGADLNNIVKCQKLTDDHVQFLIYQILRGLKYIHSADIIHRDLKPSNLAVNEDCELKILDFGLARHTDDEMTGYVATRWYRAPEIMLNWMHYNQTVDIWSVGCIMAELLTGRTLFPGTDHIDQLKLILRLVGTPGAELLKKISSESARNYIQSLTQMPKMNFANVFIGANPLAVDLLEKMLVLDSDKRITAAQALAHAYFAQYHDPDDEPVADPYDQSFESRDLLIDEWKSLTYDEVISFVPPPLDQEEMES
# Sequence of LIM domain kinase 2 (P53671 whole entry, the tested form may be a part): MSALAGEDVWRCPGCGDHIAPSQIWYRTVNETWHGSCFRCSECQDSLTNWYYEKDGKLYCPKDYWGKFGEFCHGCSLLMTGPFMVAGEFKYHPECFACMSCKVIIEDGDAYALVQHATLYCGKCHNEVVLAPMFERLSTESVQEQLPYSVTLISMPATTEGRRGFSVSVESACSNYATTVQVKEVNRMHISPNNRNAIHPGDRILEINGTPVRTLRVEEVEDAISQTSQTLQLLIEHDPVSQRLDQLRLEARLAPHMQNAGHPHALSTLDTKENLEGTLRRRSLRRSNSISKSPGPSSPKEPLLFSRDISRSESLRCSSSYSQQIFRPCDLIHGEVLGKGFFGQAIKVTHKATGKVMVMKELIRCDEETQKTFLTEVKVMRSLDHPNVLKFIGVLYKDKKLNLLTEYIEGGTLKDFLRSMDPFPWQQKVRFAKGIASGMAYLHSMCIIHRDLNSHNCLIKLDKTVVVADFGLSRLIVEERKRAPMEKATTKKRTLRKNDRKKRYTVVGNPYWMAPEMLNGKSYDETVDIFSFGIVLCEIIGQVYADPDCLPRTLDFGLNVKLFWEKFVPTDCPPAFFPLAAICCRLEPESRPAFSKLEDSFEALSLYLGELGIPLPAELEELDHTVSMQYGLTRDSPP
# Sequence of Receptor-type tyrosine-protein kinase FLT3 (Homo sapiens) (P36888 whole entry): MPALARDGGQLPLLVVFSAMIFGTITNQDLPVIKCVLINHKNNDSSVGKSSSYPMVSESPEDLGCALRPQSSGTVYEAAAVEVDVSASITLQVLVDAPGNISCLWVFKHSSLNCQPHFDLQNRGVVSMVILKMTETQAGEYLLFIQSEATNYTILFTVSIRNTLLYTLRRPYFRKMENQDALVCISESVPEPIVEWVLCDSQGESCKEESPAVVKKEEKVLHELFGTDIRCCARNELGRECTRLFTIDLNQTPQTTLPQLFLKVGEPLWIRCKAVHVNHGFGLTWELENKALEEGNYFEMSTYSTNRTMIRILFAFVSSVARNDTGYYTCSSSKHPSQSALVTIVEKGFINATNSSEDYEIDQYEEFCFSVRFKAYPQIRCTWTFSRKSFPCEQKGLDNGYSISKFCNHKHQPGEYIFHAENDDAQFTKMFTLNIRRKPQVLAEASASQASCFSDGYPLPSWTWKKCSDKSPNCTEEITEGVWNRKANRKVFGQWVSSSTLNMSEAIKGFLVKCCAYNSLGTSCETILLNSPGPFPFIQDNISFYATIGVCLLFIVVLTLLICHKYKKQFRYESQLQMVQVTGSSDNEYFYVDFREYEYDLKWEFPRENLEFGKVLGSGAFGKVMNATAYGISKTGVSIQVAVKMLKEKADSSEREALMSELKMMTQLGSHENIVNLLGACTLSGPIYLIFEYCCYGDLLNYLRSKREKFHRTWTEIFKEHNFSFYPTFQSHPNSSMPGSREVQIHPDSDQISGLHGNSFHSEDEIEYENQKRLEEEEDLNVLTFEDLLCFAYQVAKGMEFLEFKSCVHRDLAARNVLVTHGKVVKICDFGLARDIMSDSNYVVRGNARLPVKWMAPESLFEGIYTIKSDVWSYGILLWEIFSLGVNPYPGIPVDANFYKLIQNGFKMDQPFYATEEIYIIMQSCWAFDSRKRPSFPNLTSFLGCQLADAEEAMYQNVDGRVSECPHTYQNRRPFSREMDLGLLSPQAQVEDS
# Sequence of Mitogen-activated protein kinase 8 (Homo sapiens) (P45983 whole entry): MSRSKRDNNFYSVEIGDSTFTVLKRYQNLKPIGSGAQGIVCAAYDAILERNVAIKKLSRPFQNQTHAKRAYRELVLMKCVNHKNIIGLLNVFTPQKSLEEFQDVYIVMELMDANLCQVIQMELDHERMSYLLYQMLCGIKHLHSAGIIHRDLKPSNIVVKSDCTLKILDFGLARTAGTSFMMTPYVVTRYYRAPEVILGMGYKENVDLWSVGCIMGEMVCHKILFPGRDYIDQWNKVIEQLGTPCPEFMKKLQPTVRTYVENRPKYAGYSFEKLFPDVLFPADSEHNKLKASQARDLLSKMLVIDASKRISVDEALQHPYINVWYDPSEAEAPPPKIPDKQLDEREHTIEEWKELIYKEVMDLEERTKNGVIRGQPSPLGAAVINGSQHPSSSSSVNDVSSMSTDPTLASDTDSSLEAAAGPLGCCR
# Sequence of Serine/threonine-protein kinase Nek2 (Homo sapiens) (P51955 whole entry): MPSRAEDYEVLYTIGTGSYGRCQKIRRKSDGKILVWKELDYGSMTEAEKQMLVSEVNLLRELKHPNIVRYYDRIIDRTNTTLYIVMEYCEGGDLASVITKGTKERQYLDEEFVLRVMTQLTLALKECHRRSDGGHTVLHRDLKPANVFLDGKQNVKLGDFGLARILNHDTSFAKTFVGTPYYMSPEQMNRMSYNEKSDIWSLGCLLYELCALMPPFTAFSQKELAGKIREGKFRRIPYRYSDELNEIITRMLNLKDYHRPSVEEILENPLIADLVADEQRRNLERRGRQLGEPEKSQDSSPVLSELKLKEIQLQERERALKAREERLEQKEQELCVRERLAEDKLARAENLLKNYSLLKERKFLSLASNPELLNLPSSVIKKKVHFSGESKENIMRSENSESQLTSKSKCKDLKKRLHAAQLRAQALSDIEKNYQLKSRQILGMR
# Sequence of Aurora kinase A (Homo sapiens) (O14965 whole entry): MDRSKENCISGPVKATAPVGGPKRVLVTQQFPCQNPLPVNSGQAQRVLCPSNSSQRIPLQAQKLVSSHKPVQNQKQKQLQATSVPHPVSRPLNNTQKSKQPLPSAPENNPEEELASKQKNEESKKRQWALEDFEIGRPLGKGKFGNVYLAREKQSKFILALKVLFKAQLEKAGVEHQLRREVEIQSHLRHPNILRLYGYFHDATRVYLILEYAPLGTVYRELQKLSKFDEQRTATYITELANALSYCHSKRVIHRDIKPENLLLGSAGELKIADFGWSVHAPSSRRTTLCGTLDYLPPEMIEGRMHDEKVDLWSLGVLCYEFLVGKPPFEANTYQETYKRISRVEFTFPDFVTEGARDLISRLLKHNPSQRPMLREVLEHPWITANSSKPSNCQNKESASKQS
# Sequence of Calcium/calmodulin-dependent protein kinase type 1D (Homo sapiens) (Q8IU85 whole entry, looked up): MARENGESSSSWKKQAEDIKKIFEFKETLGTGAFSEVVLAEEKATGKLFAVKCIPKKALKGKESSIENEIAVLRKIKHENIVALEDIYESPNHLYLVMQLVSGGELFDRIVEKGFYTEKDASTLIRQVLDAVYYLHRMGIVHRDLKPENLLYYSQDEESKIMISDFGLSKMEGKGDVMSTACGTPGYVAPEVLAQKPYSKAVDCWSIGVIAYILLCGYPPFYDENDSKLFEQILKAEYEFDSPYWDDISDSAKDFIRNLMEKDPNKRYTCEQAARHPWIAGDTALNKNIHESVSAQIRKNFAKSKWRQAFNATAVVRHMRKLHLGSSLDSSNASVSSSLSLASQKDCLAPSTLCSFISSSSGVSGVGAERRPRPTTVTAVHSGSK
# Sequence of Death-associated protein kinase 2 (Homo sapiens) (Q9UIK4 whole entry, looked up): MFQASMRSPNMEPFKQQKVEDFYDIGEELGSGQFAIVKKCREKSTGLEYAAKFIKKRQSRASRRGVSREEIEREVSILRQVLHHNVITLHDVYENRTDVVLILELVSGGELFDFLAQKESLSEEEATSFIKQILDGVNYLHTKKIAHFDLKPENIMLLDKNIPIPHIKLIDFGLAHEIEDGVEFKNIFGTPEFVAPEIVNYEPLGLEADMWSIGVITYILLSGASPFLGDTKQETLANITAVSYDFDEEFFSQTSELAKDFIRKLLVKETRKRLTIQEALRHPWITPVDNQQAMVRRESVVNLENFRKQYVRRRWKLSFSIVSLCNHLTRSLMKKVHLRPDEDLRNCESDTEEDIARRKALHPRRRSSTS
# Sequence of Serine/threonine-protein kinase 16 (Homo sapiens) (O75716 whole entry): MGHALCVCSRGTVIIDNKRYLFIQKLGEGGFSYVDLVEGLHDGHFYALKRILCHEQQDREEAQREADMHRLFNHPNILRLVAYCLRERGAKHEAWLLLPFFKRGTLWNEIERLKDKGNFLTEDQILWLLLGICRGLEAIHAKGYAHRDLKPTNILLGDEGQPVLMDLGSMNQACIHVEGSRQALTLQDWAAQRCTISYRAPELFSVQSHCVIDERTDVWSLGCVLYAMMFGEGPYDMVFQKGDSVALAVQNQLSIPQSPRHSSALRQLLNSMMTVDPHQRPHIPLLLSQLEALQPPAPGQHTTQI
smiles,measurement,setting,value
CCNC(=O)NCc1ccccc1-c1cc(-c2cnc(NC(C)C)s2)nc(NCCN(C)C)n1,inhibition,[1],inactive
same,inhibition,[2],inactive
same,inhibition,[3],inactive
same,inhibition,[4],0.2%
same,inhibition,[5],inactive
same,inhibition,[6],11.3%
same,Selectivity ratio,[7],> 10000
same,inhibition,[8],24.9%
same,inhibition,[9],inactive
same,solubility,[10],5940 ng/mL
same,inhibition,[11],14.5%
same,inhibition,[12],inactive
same,inhibition,[13],inactive
same,inhibition,[14],inactive
same,inhibition,[15],inactive
same,inhibition,[16],inactive
same,inhibition,[17],inactive
same,inhibition,[18],inactive
same,inhibition,[19],inactive
same,inhibition,[20],inactive
same,inhibition,[21],inactive
same,inhibition,[22],inactive
same,inhibition,[23],inactive
same,inhibition,[24],inactive
same,inhibition,[25],inactive
same,inhibition,[26],inactive
same,IC50,PBMC,3 nM
same,inhibition,[27],inactive
same,inhibition,[28],inactive
same,inhibition,[29],inactive
same,inhibition,[30],inactive
same,inhibition,[31],inactive
same,inhibition,[32],inactive
same,inhibition,[33],inactive
same,inhibition,[34],inactive
same,Selectivity ratio,[35],> 10000
same,inhibition,[36],inactive
same,inhibition,[37],inactive
same,inhibition,[38],inactive
same,inhibition,[39],inactive
same,inhibition,[40],inactive
same,inhibition,[41],inactive
same,inhibition,[42],inactive
CCCNc1ncc(-c2ccnc(C3CC3)n2)s1,IC50,[43],> 1000 nM
Nc1ncc(-c2cc(-c3ccccc3Cl)nc(-c3ccccn3)n2)s1,IC50,[43],114 nM
CC(C)Nc1ncc(-c2ccnc(-c3ccccc3Cl)n2)s1,IC50,[43],223 nM
Clc1ccccc1-c1cc(-c2cnc(NC3CCC3)s2)nc(-c2ccccn2)n1,IC50,[43],16 nM
same,IC50,PBMC,28 nM
CCNc1ncc(-c2cc(-c3ccccc3Cl)nc(-c3ccccn3)n2)s1,IC50,[43],17 nM
same,IC50,PBMC,119 nM
CCCNc1ncc(-c2cc(-c3ccccc3F)nc(N)n2)s1,IC50,[43],225 nM
CC(C)Nc1ncc(-c2cc(-c3ccccc3Cl)ncn2)s1,IC50,[43],46 nM
same,IC50,PBMC,31 nM
CCCNc1ncc(-c2cc(-c3ccccc3OCC)nc(-c3ccccn3)n2)s1,IC50,[43],859 nM
CC(C)Nc1ncc(-c2cc(-c3ccccc3Cl)nc(NCCO)n2)s1,IC50,[43],8 nM
same,IC50,PBMC,8 nM
CCCNc1ncc(-c2cc(-c3ccc(F)cc3)nc(-c3ccccn3)n2)s1,IC50,[43],52 nM
CCCNc1ncc(-c2cc(-c3ccc(OCC)cc3Cl)nc(-c3ccccn3)n2)s1,IC50,[43],3940 nM
CCCNc1ncc(-c2ccnc(-c3ccccc3F)n2)s1,IC50,[43],> 30000 nM
CC(C)Nc1ncc(-c2cc(-c3ccccc3Cl)nc(N)n2)s1,IC50,[43],16 nM
same,IC50,PBMC,> 250 nM
CCCNc1ncc(-c2cc(-c3ccccc3F)nc(C)n2)s1,IC50,[43],520 nM
CC(C)Nc1ncc(-c2cc(-c3ccccc3Cl)nc(NCC(O)CO)n2)s1 (stereo not given),IC50,[43],6 nM
same,IC50,PBMC,11 nM
CC[C@H](C)Nc1ncc(-c2cc(-c3ccccc3Cl)nc(-c3ccccn3)n2)s1,solubility,[10],< 5 ng/mL
same,IC50,[43],8 nM
same,IC50,PBMC,31 nM
CC[C@@H](C)Nc1ncc(-c2cc(-c3ccccc3Cl)nc(-c3ccccn3)n2)s1,solubility,[10],< 5 ng/mL
same,IC50,[43],5 nM
same,IC50,PBMC,13 nM
CCCNc1ncc(-c2cc(-c3ccccc3Cl)nc(-c3ccccn3)n2)s1,IC50,[43],22 nM
same,IC50,PBMC,17 nM
CC(C)Nc1ncc(-c2cc(-c3ccccc3Cl)nc(N(C)C)n2)s1,IC50,[43],573 nM
CCCNc1ncc(-c2cc(-c3ccccc3F)nc(C3CC3)n2)s1,IC50,[43],> 1000 nM
CC(C)Nc1ncc(-c2cc(-c3ccccc3CNC(=O)NC3CC3)nc(NCCN(C)C)n2)s1,IC50,[43],16 nM
same,IC50,PBMC,11 nM
CC(C)Nc1ncc(-c2cc(-c3ccccc3Cl)nc(-c3ccccn3)n2)s1,IC50,LIM domain kinase 2,362 nM
same,IC50,LIM domain kinase 1,252 nM
same,solubility,[10],< 5 ng/mL
same,IC50,[43],4 nM
same,IC50,PBMC,21 nM
CNC(=O)NCc1ccccc1-c1cc(-c2cnc(NC(C)C)s2)nc(NCCN(C)C)n1,IC50,[43],2 nM
same,IC50,PBMC,12 nM
Clc1ccccc1-c1cc(-c2cnc(NC3CC3)s2)nc(-c2ccccn2)n1,IC50,[43],17 nM
same,IC50,PBMC,22 nM
CCCNc1ncc(-c2cc(-c3ccc(F)cc3Cl)nc(-c3ccccn3)n2)s1,IC50,[43],42 nM
same,IC50,PBMC,17 nM
CC(C)Nc1ncc(-c2cc(-c3ccccc3Cl)nc(NCCN(C)C)n2)s1,IC50,LIM domain kinase 2,3.05 nM
same,IC50,LIM domain kinase 1,4.01 nM
same,solubility,[10],994 ng/mL
same,IC50,[43],5 nM
same,IC50,PBMC,1 nM
CCCNc1ncc(-c2cc(-c3ccccc3F)nc(-c3ccccn3)n2)s1,IC50,[43],52 nM
same,IC50,PBMC,62 nM
CCCNc1ncc(-c2ccnc(-c3ccccn3)n2)s1,IC50,[43],314 nM
